# Data from patent publication US20090139433A1, “DENTAL MATERIALS BASED ON ALKYLENEDIAMINE-N,N,N',N'- TETRAACETIC ACID- (METH)ACRYLAMIDES” (Ivoclar Vivadent AG, priority 2007, published 2009).
# Assay: Examination of the resistance to hydrolysis by 1H-NMR on storage
# Assay type: physicochemical
# Details: 20% solution in DMSO-d6/D2O (1:1); for hydrolysis products in the 1H-NMR spectrum at the start of the investigation: 37° C., at the start / immediately
# Experimental: To examine the hydrolysis stabilities of the monomers MAM-EDTA and MA-EDTA, respectively, in each case a 20% solution in DMSO-d6/D2O (1:1) was stored at 37° C. At certain intervals, the ^1H-NMR spectra of these solutions were recorded. […] After 119 days' storage at 37° C., approx. 50% of the methacrylic ester groups had been hydrolyzed. In contrast, the monomer MAM-EDTA according to the invention was clearly more hydrolysis-resistant.
Substance,hydrolysis products in the 1H-NMR spectrum at the start of the investigation,"methacrylic ester groups hydrolyzed (after 119 days' storage at 37° C., 1H-NMR)",additional double-bond signals in the 1H-NMR spectrum (after 119 days at 37° C.)
EDTA-di(2-methacryloyloxyethyl)ester [MA-EDTA],a second double-bond signal could be observed immediately,approx. 50%,–
EDTA-di(5-methacrylamidopentyl)ester [MAM-EDTA],no hydrolysis products could be recognized,–,no additional double-bond signals could be detected
